Patent EP0811378A1, “PREVENTIVE/REMEDY FOR INTERSTITIAL PNEUMONIA, INFLAMMATORY INTESTINAL DISEASES OR VASCULAR THICKENING CONTAINING QUINOLIZINONE COMPOUNDS, SALT THEREOF OR HYDRATES THEREFOR” (priority 1995, dated 1996)
Where a name gives a salt, the structure may show the parent alone.

Tests used:
[1] = system: bleomycin-induced pulmonary fibrosis; assay: Efficacy in a mouse model of bleomycin-induced pulmonary fibrosis; type: in vivo, ICR mice; conditions: 1 mg/kg orally twice a day, day 28
Method: ICR mice (12 weeks old, male gender) were intravenously dosed with bleomycin (10 mg/kg) daily for 10 days. Test compound 1 was suspended in 0.5% methylcellulose solution and administered orally twice a day beginning the first day of bleomycin treatment till the day immediately preceding sacrifice. A control group received 0.5% methylcellulose solution in the like manner. Twenty-eight (28) days reckoning from administration of the initial dose of bleomycin, the mice were sacrificed, the lungs were isolated, and the lung hydroxyproline content was determined in accordance with Woessner's method. Histopathological specimens were also prepared at the same time and the degree of fibrotic change was evaluated after Azan-Mallory staining.

[2] = system: silica-induced pulmonary fibrosis; assay: Efficacy in a mouse model of silica-induced pulmonary fibrosis; type: in vivo, C57BL/6 mice; conditions: for Hydroxyproline content: lungs isolated 16 days after silica, Mean ± SE
Method: Using C57BL/6 mice (8 weeks old, male gender), the neck was incised under pentobarbital anesthesia and silica (2 mg/0.1 ml/animal) was administered intra-tracheally. A sham operated intact group received physiological saline in the same manner. The drug was orally administered daily beginning the day of silica treatment till the day immediately preceding sacrifice. Thus, test compound 1 and tranilast were respectively administered once after silica treatment and twice daily on the next and subsequent days, in morning and evening. In the sham operated and control groups, 0.5% methylcellulose was similarly administered. Sixteen (16) days after sensitization, the mice were bled to death under pentobarbital anesthesia and the lungs were isolated. The hydroxyproline content of the isolated lungs was assayed and used as an indicator of pulmonary fibrosis. The difference in mean value between the control group and the treatment group or the sham operated group was tested by one-way analysis of variance and Dunnett multiple-comparison test.

[3] = system: acetic acid-induced colitis; assay: Efficacy in a rat model of acetic acid-induced colitis; type: in vivo, SD rats; conditions: po, inhibition of lesion score, read-out: Degree of inhibition
Method: Male SD rats (7-8 weeks old) were deprived of food for 24 hours and a suspension of test compound 2 in 0.5% methylcellulose solution was administered orally. Thirty (30) minutes later, 1 ml/rat of 4% acetic acid in saline was infused from the anus under ether anesthesia. An intact group received a saline infusion. The infusion was carried out over 20 seconds. Then, the animal was held in inverted upright position for 30 seconds, after which 2 ml of phosphate buffer solution was infused for washout. Twenty-four (24) hours later, the animal was sacrificed by carbon dioxide inhalation, the large intestine was isolated, and the local lesion was scored according to the following criteria. Lesion score 0. No lesion 1. Hyperemia without ulceration 2. Inflammation (hyperemia and thickening of the bowel wall) or ulceration without definite inflammation 3. Ulceration with inflammation at 1 site 4. Ulceration with inflammation at 2 or more sites 5. A large ulcer sized 1 cm or more 6-10. An ulcer sized 2 cm or more; 1 point added for each increment of 1 cm

[4] = Oral acute toxicity in rats; type: in vivo

For `O=C(Nc1nnn[nH]1)c1cc(Oc2ccccc2)c2ccccn2c1=O` [Test compound 1, N-[5-(1H-tetrazolyl)]-1-phenoxy-4H-quinolizin-4-one-3-carboxamide sodium salt], the “Histopathological examination, degree of fibrotic change” value ([1]; Azan-Mallory staining) was “definite inhibition of pulmonary fibrosis”, the inhibition at 1 mg/kg ([1]; Mus musculus, po, 672 h, inhibition of lung hydroxyproline content, read-out: Degree of inhibition) was 88.6% and the Hydroxyproline content ([2]; 1 mg/kg orally twice daily, n=10) was “**144.41±9.69 µg/lung”. The inhibition at 1 mg/kg ([2]; Mus musculus, po, 384 h, inhibition of lung hydroxyproline content, 1 mg/kg orally twice daily, day 16, read-out: Degree of inhibition) was 88.7%.
In the case of `O=C(Nc1nnn[nH]1)c1cc(Oc2ccccc2)c2ccccn2c1=O` [Test compound 2, N-[5-(1H-tetrazolyl)]-1-phenoxy-4H-quinolizin-4-one-3-carboxamide sodium salt monohydrate], the inhibition at 1 mg/kg ([3]; 1 mg/kg orally) is reported as 38.3%, the inhibition at 10 mg/kg ([3]; 10 mg/kg orally) is reported as 68.1% and the “oral acute toxicity LD50” value ([4]; female gender) is reported as at least 5 g/kg/day. The “oral acute toxicity LD50” value ([4]; male gender) was 4.5 g/kg/day.
Work on `COc1ccc(/C=C/C(=O)Nc2ccccc2C(=O)O)cc1OC` [Tranilast, reference compound] yielded a Hydroxyproline content ([2]; 100 mg/kg orally twice daily, n=9) of 224.66±18.44 µg/lung and an inhibition at 100 mg/kg ([2]; Mus musculus, po, 384 h, inhibition of lung hydroxyproline content, 100 mg/kg orally twice daily, day 16, read-out: Degree of inhibition) of 13.6%.
